According to patent publication US20230312587A1, “PTERIDINONE COMPOUNDS AND USES THEREOF” (Vertex Pharmaceutical Incorporated, priority 2018, published 2023):

How the values were obtained:
[1] = biological target: WFS1 (Homo sapiens (Human), UniProt O76024); assay: Binding of radiolabeled Compound 136 to cellular membrane extracts
Experimental: Cell pellets were re-suspended in 15 times packed cellular volume in 4° C. hypotonic lysis buffer (10 mM HEPES, pH 7.5 containing 1×Protease inhibitor, 0.5 mM EDTA and 2 mM DTT). Re-suspended cells were homogenized with 6-8 strokes in a dounce homogenizer kept on ice. Lysates were centrifuged at 500×G for 15 minutes at 4° C. without brake to decelerate rotor. Following centrifugation, remove the supernatant to a fresh tube and place on ice (Supernatant 1). Repeat the above steps on the lysed cell pellet using 0.5 the original volume of hypotonic lysis buffer and remove the 500× G supernatant (Supernatant 2) and combine with Supernatant 1. Transfer the combined supernatants to a 45-Ti ultracentrifuge tube and centrifuge at 100,000× G for 30 minutes. Following ultracentrifugation, carefully remove the supernatant and discard. Resuspend the 100,000× G pellet in cold resuspension buffer (10 mM HEPES, pH 7.5, 300 mM NaCl containing 1× Protease inhibitor, 1× EDTA and 2 mM DTT). […]
The binding affinities of compounds were determined by measuring the competitive displacement of a tritiated Compound 136 probe from purified HEK293 membranes over-expressing WFS-1. […]
The binding affinity of radiolabeled Compound 136 to cell membranes derived from cells expressing different levels of WFS1 as determined by immunoblotting is shown in FIG. 8. […]

[2] = system: tumor xenografts derived from multiple cancer types; assay: In vivo efficacy of Compound 136 in various tumor xenografts; set-up: species or system SCID or nude mice; key to tumor response (regression class): CR: complete regression (majority response on treatment is that tumors become undetectable); PR: partial regression (majority response on treatment is that tumors shrink by at least 330%)
Experimental: Female immune deficient mice (Charles River, 4-6 wks age) were anesthetized with Ketamine-Xylazine (140 mg/kg-14 mg/kg ip) and shaved. Puralube eye ointment was applied to the eyes to prevent desiccation of the corneas. Betadine and 70% ethanol was applied to the shaved location to sterilize the skin at the location of the incision. The animals were placed in a biosafety cabinet for the duration of the surgery. Using scissors, an 8 to 10 mm incision was made in the lateral flank of the skin. A tumor fragment weighing between 50 and 150 mg was placed under the skin at the incision site using forceps, and staples were used to close the incision. The staples were removed 5 to 7 days after surgery. Starting approximately two weeks after implantation, animals were weighed, and tumors were measured using caliper twice weekly. Tumor volume was calculated using the formula: volume=length×width^2×0.52.
Compound administration began when xenografts reached approximately 100-300 mm3 and continued until control xenografts reached […] of the animal's body weight. Test compounds were administered orally by gastric gavage. Percent tumor growth inhibition (TG) was calculated on the indicated treatment day. Percent TGI is defined as: [1−(del T/del C)]×100%, where del T is the final minus initial average volumes of the treated group, and del C is the final minus initial average volumes of the control group. […] The tested compounds were administered orally. Vehicle control consisted of either 0.5% methylcellulose/0.1% sodium lauryl sulfate or 20% captisol. Tumor volumes were determined by caliper measurement twice a week.
Tumors were engrafted in either SCID or nude mice. Compound 136 was administered orally once a day (QD) at 100 mg/kg. Vehicle control consisted of 0.5 methylcellulose/0.10% sodium lauryl sulfate. Tumor volumes were determined by caliper measurement twice a week. TG tumor growth inhibition at end of treatment. CR: complete regression (majority response on treatment is that tumors become undetectable), PR: partial regression (majority response on treatment is that tumors shrink by at least […]).

[3] = Bladder BXF 1036, 100 mg/kg QD oral, 21 days
[4] = Kidney RXF 631, 100 mg/kg QD oral, 21 days
[5] = Melanoma MEXF 1765, 100 mg/kg QD oral, 21 days
[6] = Multiple myeloma NCI-H929, 100 mg/kg QD oral, 21 days
[7] = Multiple myeloma OPM2, 100 mg/kg QD oral, 21 days
[8] = Non-small cell lung LXFL 529, 100 mg/kg QD oral, 21 days
[9] = Non-small cell lung LXFL 625, 100 mg/kg QD oral, 21 days
[10] = Non-small cell lung LXFL 2207, 100 mg/kg QD oral, 21 days
[11] = Non-small cell lung OD26749, 100 mg/kg QD oral, 21 days
[12] = Non-small cell lung OD33966, 100 mg/kg QD oral, 21 days

Sequence of WFS1 (O76024 whole entry): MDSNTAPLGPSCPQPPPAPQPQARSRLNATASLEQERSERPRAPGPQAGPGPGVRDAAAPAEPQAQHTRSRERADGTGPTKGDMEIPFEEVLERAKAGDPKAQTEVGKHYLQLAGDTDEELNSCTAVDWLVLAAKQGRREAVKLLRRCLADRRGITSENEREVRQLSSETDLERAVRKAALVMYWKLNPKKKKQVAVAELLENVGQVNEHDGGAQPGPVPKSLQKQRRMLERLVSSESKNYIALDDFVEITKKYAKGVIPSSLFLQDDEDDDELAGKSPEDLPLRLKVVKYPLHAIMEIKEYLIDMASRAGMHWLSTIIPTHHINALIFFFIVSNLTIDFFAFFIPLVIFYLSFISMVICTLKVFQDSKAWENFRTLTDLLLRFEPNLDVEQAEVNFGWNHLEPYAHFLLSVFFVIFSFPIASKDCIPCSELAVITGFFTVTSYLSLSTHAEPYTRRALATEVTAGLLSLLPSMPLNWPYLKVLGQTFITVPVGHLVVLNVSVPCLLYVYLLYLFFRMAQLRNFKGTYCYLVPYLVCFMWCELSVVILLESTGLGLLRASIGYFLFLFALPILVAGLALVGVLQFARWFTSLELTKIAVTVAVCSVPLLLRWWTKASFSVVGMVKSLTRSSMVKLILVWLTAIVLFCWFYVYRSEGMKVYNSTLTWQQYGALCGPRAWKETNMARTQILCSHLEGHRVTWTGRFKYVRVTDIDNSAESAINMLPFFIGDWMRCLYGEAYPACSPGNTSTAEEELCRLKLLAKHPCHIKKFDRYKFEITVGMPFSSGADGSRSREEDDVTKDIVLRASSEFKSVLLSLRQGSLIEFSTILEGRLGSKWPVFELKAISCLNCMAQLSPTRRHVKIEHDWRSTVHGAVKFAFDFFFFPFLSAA

`Cc1nc(NCc2cnn(Cc3ccc(C(F)(F)F)nc3)c2)nc2c1NC(=O)[C@H](C)N2C` [Compound 136, (7S)-4,7,8-trimethyl-2-(((1-((6-(trifluoromethyl)pyridin-3-yl)methyl)-111-pyrazol-4-yl)methyl)amino)-7,8-dihydropteridin-6(5H)-one] was tested, and the “binding to cellular membrane extracts which over-express WFS1” value ([1]; radiolabeled (tritiated) Compound 136) was “specifically bind”, the “Bmax vs level of WFS1 protein in cellular membrane” value ([1]; radiolabeled Compound 136, cells expressing different levels of WFS1) was “correlates with the level of WFS1 protein” and the “% TGI” value [2, 3] was > 100%. The “Body weight change at end of treatment” value [2, 3] was “+5.5%”, the “tumor response (regression class)” value [2, 3] was “PR” and the “% TGI” value ([2]; Breast DU4475, 100 mg/kg QD oral, 14 days) was 99%. The “% TGI” value [2, 4] was 89%, the “Body weight change at end of treatment” value [2, 4] was “+6.2%” and the “% TGI” value [2, 5] was > 100%. The “Body weight change at end of treatment” value [2, 5] was “+9.8%”, the “tumor response (regression class)” value [2, 5] was “CR” and the “% TGI” value [2, 6] was > 100%. The “Body weight change at end of treatment” value [2, 6] was “+1.8%”, the “tumor response (regression class)” value [2, 6] was “CR” and the “% TGI” value [2, 7] was > 100%. The “Body weight change at end of treatment” value [2, 7] was −0.9%, the “tumor response (regression class)” value [2, 7] was “CR” and the “% TGI” value [2, 8] was > 100%. For the same compound, the “Body weight change at end of treatment” value [2, 8] was “+5.5%”, the “tumor response (regression class)” value [2, 8] was “CR” and the “% TGI” value [2, 9] was > 100%. For the same compound, the “Body weight change at end of treatment” value [2, 9] was “+3.7%”, the “tumor response (regression class)” value [2, 9] was “CR” and the “% TGI” value [2, 10] was > 100%. The “Body weight change at end of treatment” value [2, 10] was “+1.5%”, the “tumor response (regression class)” value [2, 10] was “PR” and the “% TGI” value [2, 11] was > 100%. The “Body weight change at end of treatment” value [2, 11] was −0.1%, the “tumor response (regression class)” value [2, 11] was “CR” and the “% TGI” value [2, 12] was > 100%. The “Body weight change at end of treatment” value [2, 12] was “+4.5%”, the “tumor response (regression class)” value [2, 12] was “PR” and the “growth of tumor xenografts” value ([2]; orally once a day (QD) at 100 mg/kg, SCID or nude mice) was “inhibits growth of tumor xenografts derived from multiple cancer types”.
